≈ marks a conversion by molar mass, not a printed value.
tested on: Escherichia coli; experiment: Antibacterial activity against Escherichia coli at 50 ug/mL; format: functional; settings: read-out: IZ

Structure (SMILES) | zone of inhibition at 50 µg/mL
COc1ccccc1C1SCC(=O)N1NC(=O)Cn1ncc2cc([N+](=O)[O-])ccc21 (stereo unspecified) | 14.8 mm
COc1ccc(C2SCC(=O)N2NC(=O)Cn2ncc3cc([N+](=O)[O-])ccc32)cc1 (stereo unspecified) | 16 mm

tested on: Escherichia coli; experiment: Antibacterial activity against Escherichia coli at 100 ug/mL; format: functional; settings: read-out: IZ

Structure (SMILES) | zone of inhibition at 100 µg/mL
COc1ccccc1C1SCC(=O)N1NC(=O)Cn1ncc2cc([N+](=O)[O-])ccc21 (stereo unspecified) | 17.2 mm
COc1ccc(C2SCC(=O)N2NC(=O)Cn2ncc3cc([N+](=O)[O-])ccc32)cc1 (stereo unspecified) | 18 mm

tested on: Bacillus subtilis; experiment: Antibacterial activity against Bacillus subtilis at 50 ug/mL; format: functional; settings: read-out: IZ

Structure (SMILES) | zone of inhibition at 50 µg/mL
COc1ccccc1C1SCC(=O)N1NC(=O)Cn1ncc2cc([N+](=O)[O-])ccc21 (stereo unspecified) | 11.5 mm
COc1ccc(C2SCC(=O)N2NC(=O)Cn2ncc3cc([N+](=O)[O-])ccc32)cc1 (stereo unspecified) | 12.4 mm

tested on: Bacillus subtilis; experiment: Antibacterial activity against Bacillus subtilis at 100 ug/mL; format: functional; settings: read-out: IZ

Structure (SMILES) | zone of inhibition at 100 µg/mL
COc1ccccc1C1SCC(=O)N1NC(=O)Cn1ncc2cc([N+](=O)[O-])ccc21 (stereo unspecified) | 15 mm
COc1ccc(C2SCC(=O)N2NC(=O)Cn2ncc3cc([N+](=O)[O-])ccc32)cc1 (stereo unspecified) | 16 mm

tested on: Aspergillus flavus; experiment: Antifungal activity against Aspergillus flavus at 50 ug/mL; format: functional; settings: read-out: IZ

Structure (SMILES) | zone of inhibition at 50 µg/mL
COc1ccccc1C1SCC(=O)N1NC(=O)Cn1ncc2cc([N+](=O)[O-])ccc21 (stereo unspecified) | 13.9 mm
COc1ccc(C2SCC(=O)N2NC(=O)Cn2ncc3cc([N+](=O)[O-])ccc32)cc1 (stereo unspecified) | 14.8 mm

tested on: Aspergillus flavus; experiment: Antifungal activity against Aspergillus flavus at 100 ug/mL; format: functional; settings: read-out: IZ

Structure (SMILES) | zone of inhibition at 100 µg/mL
COc1ccccc1C1SCC(=O)N1NC(=O)Cn1ncc2cc([N+](=O)[O-])ccc21 (stereo unspecified) | 16.8 mm
COc1ccc(C2SCC(=O)N2NC(=O)Cn2ncc3cc([N+](=O)[O-])ccc32)cc1 (stereo unspecified) | 17.7 mm

tested on: Penicillium citrinum; experiment: Antifungal activity against Penicillium citrinum at 50 ug/mL; format: functional; settings: read-out: IZ

Structure (SMILES) | zone of inhibition at 50 µg/mL
COc1ccccc1C1SCC(=O)N1NC(=O)Cn1ncc2cc([N+](=O)[O-])ccc21 (stereo unspecified) | 12.5 mm
COc1ccc(C2SCC(=O)N2NC(=O)Cn2ncc3cc([N+](=O)[O-])ccc32)cc1 (stereo unspecified) | 13.6 mm

tested on: Penicillium citrinum; experiment: Antifungal activity against Penicillium citrinum at 100 ug/mL; format: functional; settings: read-out: IZ

Structure (SMILES) | zone of inhibition at 100 µg/mL
COc1ccccc1C1SCC(=O)N1NC(=O)Cn1ncc2cc([N+](=O)[O-])ccc21 (stereo unspecified) | 16 mm
COc1ccc(C2SCC(=O)N2NC(=O)Cn2ncc3cc([N+](=O)[O-])ccc32)cc1 (stereo unspecified) | 17 mm

tested on: Fusarium oxysporum; experiment: Antifungal activity against Fusarium oxysporum at 50 ug/mL; format: functional; settings: read-out: IZ

Structure (SMILES) | zone of inhibition at 50 µg/mL
COc1ccccc1C1SCC(=O)N1NC(=O)Cn1ncc2cc([N+](=O)[O-])ccc21 (stereo unspecified) | 15 mm
COc1ccc(C2SCC(=O)N2NC(=O)Cn2ncc3cc([N+](=O)[O-])ccc32)cc1 (stereo unspecified) | 16 mm

tested on: Fusarium oxysporum; experiment: Antifungal activity against Fusarium oxysporum at 100 ug/mL; format: functional; settings: read-out: IZ

Structure (SMILES) | zone of inhibition at 100 µg/mL
COc1ccccc1C1SCC(=O)N1NC(=O)Cn1ncc2cc([N+](=O)[O-])ccc21 (stereo unspecified) | 18 mm
COc1ccc(C2SCC(=O)N2NC(=O)Cn2ncc3cc([N+](=O)[O-])ccc32)cc1 (stereo unspecified) | 18.9 mm

tested on: Escherichia coli; experiment: Antibacterial activity against Escherichia coli; format: functional; settings: not given

Structure (SMILES) | MIC
COc1ccccc1C1SCC(=O)N1NC(=O)Cn1ncc2cc([N+](=O)[O-])ccc21 (stereo unspecified) | 20 µg/mL (≈ 46.8 µM)
COc1ccc(C2SCC(=O)N2NC(=O)Cn2ncc3cc([N+](=O)[O-])ccc32)cc1 (stereo unspecified) | 20 µg/mL (≈ 46.8 µM)

tested on: Bacillus subtilis; experiment: Antibacterial activity against Bacillus subtilis; format: functional; settings: not given

Structure (SMILES) | MIC
COc1ccccc1C1SCC(=O)N1NC(=O)Cn1ncc2cc([N+](=O)[O-])ccc21 (stereo unspecified) | 30 µg/mL (≈ 70.2 µM)
COc1ccc(C2SCC(=O)N2NC(=O)Cn2ncc3cc([N+](=O)[O-])ccc32)cc1 (stereo unspecified) | 25 µg/mL (≈ 58.5 µM)

tested on: Aspergillus flavus; experiment: Antifungal activity against Aspergillus flavus; format: functional; settings: not given

Structure (SMILES) | MIC
COc1ccccc1C1SCC(=O)N1NC(=O)Cn1ncc2cc([N+](=O)[O-])ccc21 (stereo unspecified) | 20 µg/mL (≈ 46.8 µM)
COc1ccc(C2SCC(=O)N2NC(=O)Cn2ncc3cc([N+](=O)[O-])ccc32)cc1 (stereo unspecified) | 19 µg/mL (≈ 44.5 µM)

tested on: Penicillium citrinum; experiment: Antifungal activity against Penicillium citrinum; format: functional; settings: not given

Structure (SMILES) | MIC
COc1ccccc1C1SCC(=O)N1NC(=O)Cn1ncc2cc([N+](=O)[O-])ccc21 (stereo unspecified) | 28 µg/mL (≈ 65.5 µM)
COc1ccc(C2SCC(=O)N2NC(=O)Cn2ncc3cc([N+](=O)[O-])ccc32)cc1 (stereo unspecified) | 28 µg/mL (≈ 65.5 µM)

tested on: Fusarium oxysporum; experiment: Antifungal activity against Fusarium oxysporum; format: functional; settings: not given

Structure (SMILES) | MIC
COc1ccccc1C1SCC(=O)N1NC(=O)Cn1ncc2cc([N+](=O)[O-])ccc21 (stereo unspecified) | 17 µg/mL (≈ 39.8 µM)
COc1ccc(C2SCC(=O)N2NC(=O)Cn2ncc3cc([N+](=O)[O-])ccc32)cc1 (stereo unspecified) | 15 µg/mL (≈ 35.1 µM)

tested on: Salmonella typhi; experiment: Antibacterial activity against Salmonella typhi; settings: not given

Structure (SMILES) | MIC
COc1ccccc1C1SCC(=O)N1NC(=O)Cn1ncc2cc([N+](=O)[O-])ccc21 (stereo unspecified) | 22 µg/mL (≈ 51.5 µM)
COc1ccc(C2SCC(=O)N2NC(=O)Cn2ncc3cc([N+](=O)[O-])ccc32)cc1 (stereo unspecified) | 20 µg/mL (≈ 46.8 µM)

tested on: Salmonella typhi; experiment: Antibacterial activity against Salmonella typhi at 50 ug/mL; settings: read-out: IZ

Structure (SMILES) | zone of inhibition at 50 µg/mL
COc1ccccc1C1SCC(=O)N1NC(=O)Cn1ncc2cc([N+](=O)[O-])ccc21 (stereo unspecified) | 13 mm
COc1ccc(C2SCC(=O)N2NC(=O)Cn2ncc3cc([N+](=O)[O-])ccc32)cc1 (stereo unspecified) | 13.8 mm

tested on: Salmonella typhi; experiment: Antibacterial activity against Salmonella typhi at 100 ug/mL; settings: read-out: IZ

Structure (SMILES) | zone of inhibition at 100 µg/mL
COc1ccccc1C1SCC(=O)N1NC(=O)Cn1ncc2cc([N+](=O)[O-])ccc21 (stereo unspecified) | 16.1 mm
COc1ccc(C2SCC(=O)N2NC(=O)Cn2ncc3cc([N+](=O)[O-])ccc32)cc1 (stereo unspecified) | 17 mm

Reference: ChEMBL document CHEMBL1240428, “Conventional and microwave assisted synthesis of some new N-[(4-oxo-2-substituted aryl -1, 3-thiazolidine)-acetamidyl]-5-nitroindazoles and its antimicrobial activity” (2010)
